“Also recorded” adds a separate entry of the source.
Assays:
HCMEC/D3 cells [1] = test: Cell titer Glo viability assay on HCMEC/D3; format: cell-based, human; settings: ~1-5 μM BIA, 72 hours
Protocol: Cell viability assay: Cells were plated at a density of 1500 cells/well in black-well clear bottom 96-well plates and left growing in culture conditions overnight. Next day, cells were treated with titrating doses of the indicated compounds. […] For BIA and cisplatin combinatorial studies, cells were incubated with BIA and cisplatin, and corresponding controls, for 5 days. Next, we used the Cell-Titer Glo 3D (Promega) following provider's guidelines and quantified for luminescence signal using a Molecular Devices SpectraMax M2 plate reader. Conditions were repeated in triplicates.

[2] = test system: hCMEC/D3 brain microvascular endothelial cells; test: ECIS electrical impedance of endothelial monolayers (Example 1); format: cell-based, human; settings: BiA 1 μM, p<0.05
Protocol: Electrical Impedance Measurements: Human Brain microvascular endothelial cell (purchased from Sciencell) monolayers were plated on special culture chambers on top of opposing circular gold electrodes (Applied Biophysics Inc). Impedance was automatically recorded during cell monolayer formation.
The in vitro effects of indirubin on endothelial monolayer permeability were also assess using Electric Cell-substrate Impedance Sensing (ECIS®) to provide a real-time, label-free, impedance-based study of cell behaviors in tissue culture. BiA (1 μM) was added to endothelial monolayers in an ECIS impedance measurement culture system (Applied Physics).

HCMEC/D3 cells [3] = test: Immunofluorescence staining of HCMEC/D3 endothelial cells; format: cell-based, human; settings: BIA 1 μM
Protocol: Immunofluorescent (IF) staining: For IF staining of HCMEC/D3 endothelial cells, we coated 8-well Nunc™ Lab-Tek™ chamber slides (Thermo Fisher Scientific) with 1× Type 1 rat-tail collagen (Corning) following provider's instructions. Then, we plated at a density of 50,000 cells/well and left in culture for 72 hours to allow for barrier formation. Next, we treated with BIA or control for 24-48 hours. Cells were then fixed with 10% formalin (Thermo Fisher Scientific) for 10 minutes, permeabilized for 30 minutes using 0.01% Triton X-100 and blocked with 0.1% normal donkey serum (Calbiochem) for 1 hour in 0.025% Tween-20 (Thermo Fisher Scientific) in Phosphate-Buffered Saline (PBS) (Gibco). Then, primary antibodies were added: mouse anti-CDH5 (VE-cadherin, BioLegend) 1:100, rabbit antiClaudin-5 (Thermo Fisher Scientific) 1:100, and mouse anti-ZO-1 (Invitrogen) 1:100, and incubated overnight in the cold. Next day, secondary antibodies were used for 2 hours at room temperature: Alexa Fluor 594 anti-mouse (1:500), Alexa Fluor 594 anti-rabbit (1:500), and Alexa Fluor 647 anti-mouse (1:500), all of these Thermo Fisher Scientific. For cytoskeleton staining Phalloidin-iFluor 488 (Abcam) 1:1000 for 30 minutes and nuclei staining using Hoechst 33342 (Thermo Fisher Scientific) 1:1000 for 5 minutes, at room temperature.

G30 tumors = test: DCE-MRI analysis of blood flow within a murine glioblastoma (k-trans); format: in vivo, mouse; settings: 24 hours after BiA 10 mg/kg IP vs pretreatment
Protocol: Magnetic Resonance Imaging (MRI): MRI was performed at the BWH Imaging Core on a 7T Bruker MRI apparatus. G30 tumors were implanted (50,000 cells per mouse) intracranially into the striatum using a stereotactic frame. After three weeks of tumor growth, MRI images were collected according to BWH Imaging Core protocols using Gadolinium contrast enhancement. After the first image was collected, BiA was administered IP at 10 mg/kg), and imaging were performed again.
The present study investigated whether the indirubin derivative, BiA (see FIG. 1A and FIG. 1B), can disrupt the permeability of the BTB. Blood flow within a murine glioblastoma was assessed using dynamic contrast-enhanced magnetic resonance imaging (DCE-MRI) analysis and as measured by k^trans.
K^trans is calculated by measuring the accumulation of gadolinium-based contrast agent in the extravascular-extracellular space. Interpretation of k^trans varied according to permeability and blood flow. In situations where permeability is very low (near-intact blood brain barrier), then k^trans is a useful measure of permeability, whereas in situations where permeability is very high (disrupted blood brain barrier), then k^trans will reflect perfusion.

[4] = test system: G9-PCDH and G34-PCDH cells; test: Platinum levels in GBM cells treated with BIA and cisplatin; format: cell-based, human; settings: 2 μM BIA and cisplatin simultaneously
HCMEC/D3 cells [5] = test: Bulk RNA-sequencing of HCMEC/D3 cells treated with BIA; format: cell-based, human
Protocol: RNA-sequencing of HCMEC/D3 cells treated with BIA: For RNA-sequencing, HCMEC/D3 cells were plated at a density of 500,000 cells/well in a 6-well plate. Left to grow for 24 hours, and then treated with 1 μM of BIA or DMSO (control). After 24 hours, cells were collected and processed for RNA extraction using the column-based RNeasy kit (QIAGEN), following provider's instructions. RNA quality and quantity were quantified using a Nanodrop™ One (Invitrogen). At least 500 ng of RNA was submitted for bulk RNA-sequencing at GeneWiz (Azenta Life Sciences). QC was accessed, and library was prepared with Poly(A) selection. Sequencing was performed using Illumina HiSeq.
Differential gene expression on the RNA-seq raw data (FASTQ files) was analyzed by Azenta Life Sciences using DESeq2 aligning to human transcriptome. Data QC was verified. Log2 fold change (Log 2FC) was calculated by Log2 (BIA group mean normalized counts/Control group mean normalized counts). The Wald test p-value and Benjamini-Hochberg adjusted p-value were calculated. A heatmap and volcano plot of top adjusted p-value differentially expressed genes (DEGs) in ensemble ID annotation bi-clustering to treatment conditions were generated. Control and BIA groups consisted of three-independent samples.

HCMEC/D3 cells [6] = test: Real-time PCR for CDH5 in HCMEC/D3 cells; format: cell-based, human; settings: 1 μM BIA, up to 48 hours
Protocol: Real-time PCR: Total RNA from GBM and HCMEC/D3 cells was obtained and processed as indicated above. For cDNA generation, we used 1 μg of RNA and processed with the iScript™ cDNA synthesis kit (BioRad), following the protocol indicated by the provider. All primers were designed using NCBI Primer-Blast tool. Detailed information on primer sequences can be found in FIG. 25 (Supplementary Table 3). Gene expression levels were quantified using PowerUp SYBR Green Master Mix (Applied Biosciences) on QuantStudio 6 Pro System (Applied Biosciences), normalized by housekeeping gene GAPDH expression and represented as relative expression using comparative ΔΔCT method.

## CC(=O)ON=C1C(=C2C(=O)Nc3cc(Br)ccc32)Nc2ccccc21 [BIA, 6-bromoindirubin acetoxime]
HCMEC/D3 cells [1]
  reduction of viability: up to 30%
[2]
  trans-endothelial electrical resistance / impedance: significantly decrease trans-endothelial electrical resistance; also recorded: diminishes electrical impedance
HCMEC/D3 cells [3]; 24-48 hrs
  CDH5 immunofluorescence at the membrane periphery: marked decrease
HCMEC/D3 cells [3]; 48 hours
  Claudin-5 immunofluorescence: no difference
  ZO-1 immunofluorescence: marked reduction
G30 tumors
  k-trans values in murine glioblastoma: significantly increased; also recorded: increased perfusion
[4]
  cellular drug (platinum) accumulation due to BIA addition: did not observe any advantage in drug accumulation
HCMEC/D3 cells [5]
  ERG expression: downregulation of ERG
  expression of WNT4, WNT10A and WNT11 ligands: increase of expression
  expression of WNT7B and WNT ligand receptors FZD4 and FZD7: decrease
HCMEC/D3 cells [5]; BIA 1 μM, 24 hrs
  CDH5 gene expression change upon BIA treatment: −3.06 fold, log 2
  PCDH12 expression: increased its expression
  expression of PHGDH, AXIN2, TCF7, VLDLR and VEGFA: promoted expression
  expression of angiogenesis-related genes MMRN2, CD93, ACVRL1, KDR, SMAD6 and S1PR3: downregulated
  significantly downregulated differentially expressed genes: 652 genes
  significantly upregulated differentially expressed genes: 862 genes
HCMEC/D3 cells [5]; of the 12 BTB-genes of the in-silico screening
  BTB-genes modulated by BIA: 8 of the 12
HCMEC/D3 cells [6]
  CDH5 expression at the transcriptional level: decreased expression
